Source: patent publication US8592451B2, “Reversible nondepolarizing neuromuscular blockade agents and methods for their use” (Cornell University, priority 2009, dated 2013)

How the values were obtained:
[1] = Stability of the CW 002-cysteine adduct (HPLC); format: physicochemical
Protocol: [drawing 58] was prepared in one step from CW 002. CW 002 was dissolved in deionized water to give a solution concentration of 37 mg/ml at a pH of 6.6. A 5 mol % excess of L-cysteine hydrochloride monohydrate was added in one portion at ambient temperature to give a solution pH of 2. Stirring for 12 hours gave complete consumption of CW 002, as observed by HPLC. CW002-Cys was isolated as an off-white solid after reaction mixture lyophilization. Product purity was estimated at 95% by HPLC peak area %.
At low pH and temperature, one new peak was formed on L-cysteine addition as the peak corresponding to CW 002 diminished. This new peak corresponds to the initial peak observed in the in vitro L-cysteine adduction experiments at 37° C. and a pH of 7.4. At elevated temperature and pH, such as conditions used to mimic in vivo reactivity, this initial peak quickly diminishes over time (t½˜60 min) while two new adduct peaks arise secondary to alkaline hydrolysis of the adduct. However, at ambient temperature and a pH of 2, the initial adduct is stable for >24 hours, allowing for isolation of the intermediate.

[2] = tested on: twitch of the extensor digitorum; experiment: Neuromuscular blocking potency and duration in anesthetized rhesus monkeys; format: in vivo, rhesus monkeys (Macaca mulatta); details: for Duration (± SD/SEM), from injection to recovery of twitch to 95% of baseline: spontaneous recovery
Protocol: Experiments were approved by the Institutional Animal Care and Use Committee of Weill Medical College of Cornell University (New York, N.Y.) and of Albany Medical College (Albany, N.Y.), where the studies were conducted. A colony of 10 adult male monkeys (Macaca mulatta) weighing 8-18 kg was studied at ˜6 week intervals. Animals were housed and cared for in accordance with the Guide for Care and Use of Laboratory Animals (National Research Council, Washington, D.C.). They were fed a standard Old World monkey diet, enriched with fruits and vegetables, and other dietary novelties and were followed throughout the study to verify normal health by physical examination, body weight, and clinical laboratory studies (Complete Blood Count, Blood Urea Nitrogen and creatinine, and liver function tests).
On the day of each study, monkeys received ketamine (7-10 mg/kg i.m.) followed by tracheal intubation under topical anesthesia with 4% lidocaine. Ventilation was controlled at 10 mL/kg and 20 breaths/min with isoflurane (1.0-2.0%) and N2O/O2 (2:1 mixture). Ringers lactate was administered at ˜10 ml kg^−1 h^−1. Arterial pressure was monitored from a femoral, superficial tibial, or radial (22 gauge) cannula. Heart rate was measured by tachograph from the arterial pulse wave. Core temperature was kept at 36.5-38.0° C. by warming blankets. Electrocardiogram and pulse oximetry were monitored continuously.
Needle electrodes (25 gauge) transmitting square-wave pulses of 0.2 msec duration at supramaximal voltage which were generated by a Grass S-88 stimulator (Grass Instruments, Quincy, Mass.) were placed at the peroneal nerve at the knee to elicit twitch responses of the extensor digitorum of the foot at 0.15 Hz. A small slip (10-20%) of the tendon was dissected free under sterile technique and tied to a Grass FT 10 force transducer (Grass Instruments, Quincy, Mass.) at a baseline tension of 50 gm. Train-of four stimulation (TOF, 2 Hz for 2 sec) was interposed at appropriate points, especially 1-2 min prior to NMBA dosing and following recovery of twitch to 95% of baseline, where TOF was subsequently evaluated every 1-2 min.
Recordings of circulatory and neuromuscular data were made on a Grass 7B polygraph (Grass Instruments). A baseline period of 15-20 min was allowed for stabilization of recordings prior to dosing.^2
Dose-response curves for twitch blockade by gantacurium, CW 002, CW 011, cisatracurium, CW002-Cys, NB 938-69, NB 1064-81, NB 802-17 (CW 001), NB 832-65, and NB 1163-79, structures of which are all shown above, were generated as follows. […] Successive doses were separated by at least three estimated half lives beyond complete recovery of the previous dose to TOF of 110-120%, which is normal for these monkeys. Only the first one or two doses yielding 5 to 99% blockade were included from any single experiment for computation of dose-response data.
Comparative studies of spontaneous recovery versus antagonism/reversal were done at least 3 estimated half-lives following dose-response studies.
ED 50 and ED 95 were computed from the regression of log dose vs. the logit of percentage blockade of twitch.
CW002-Cys, the L-cysteine adduct of CW 002, was available in limited quantity and was administered in cumulative fashion to three animals to compare approximate potency and duration of effect versus its parent compound CW 002.

[3] = tested on: twitch contractions of the extensor digitorum muscle; experiment: Rhesus monkey anesthesia bioassay for potency and duration (substituent and stereochemical comparison, preliminary studies); format: in vivo; details: rhesus monkeys
Protocol: Two stereoisomeric structures, CW 002 (R-trans, R-trans), and CW 003 (R-cis, R-cis) were tested in the rhesus monkey anesthesia bioassay for potency and duration. A third compound, CW 001 (R-trans, R-trans) bearing an additional methoxyl group on each of the two benzyl groups in the molecule, was also tested.
Rhesus monkeys were anesthetized with ketamine (7.5 mg/Kg) given intramuscularly or intravenously. Anesthesia was maintained with a mixture of isoflurane (1.5%), nitrous oxide (60%) and oxygen (40%). The common peroneal nerve was stimulated supramaximally with square wave pulses of 0.2 m sec duration at a rate of 0.15 Hz. Twitch contractions were recorded via the tendon of the extensor digitorum muscle.
In all animals, the trachea was intubated and ventilation was controlled at 12-15 ml/kg, 18-24 breaths per minute. A peripheral vein and artery were cannulated for drug administration and for recording of arterial pressure, respectively. In preliminary studies a neuromuscular blocking agent having one of the following structures was administered intravenously.

SMILES | half-life ([1]; 37° C., pH 7.4, read-out: t½ of initial adduct peak (alkaline hydrolysis of the adduct)) | time the initial adduct is stable ([1]; ambient temperature, pH of 2) | Duration, spontaneous recovery (times approximate) ([2]; following cumulative dosage, three animals) | reversibility of effect by cysteine or glutathione [3] | Potency (ED95 mg/kg) ([3]; intravenously, preliminary studies) | Duration at 4X ED95 ([3]; preliminary studies, 4X ED95, head prints no unit (column beside it: minutes)) | Duration (minutes), from injection to 95% twitch recovery ([3]; preliminary studies, dose not printed (beside ED95 column)) | Duration (± SD/SEM), from injection to recovery of twitch to 95% of baseline ([2]; administered dose 0.03 mg/kg) | Duration (± SD/SEM), from injection to recovery of twitch to 95% of baseline ([2]; administered dose 0.10 mg/kg) | ED 95 (± SD/SEM) ([2]; twitch blockade, monkeys under isoflurane, twitch at 0.15 Hz, calculated from dose-response curve)
COc1ccc(C[C@@H]2c3cc(OC)c(OC)cc3CC[N@@+]2(C)CCCOC(=O)CC(SC[C@@H](N)C(=O)O)C(=O)OCCC[N@+]2(C)CCc3cc(OC)c(OC)cc3[C@H]2Cc2ccc(OC)c(OC)c2)cc1OC (stereo partly shown) [CW002-Cys] | ~1 h | > 24 h | ~30-35^+++ min | – | – | – | – | – | – | –
COc1cc2c(cc1OC)[C@@H](Cc1cc(OC)c(OC)c(OC)c1)[N@+](C)(CCCOC(=O)/C=C/C(=O)OCCC[N@+]1(C)CCc3cc(OC)c(OC)cc3[C@H]1Cc1cc(OC)c(OC)c(OC)c1)CC2 [NB 802-17] | – | – | – | reversible | 0.04 mg/kg | 50-60 | 30 to 40 min | 35.0 ± 15.0 min | 49.4 ± 5.8 min | 0.033 ± 0.005 mg/kg
